Laboratory results from US6413937B1, “Combinations for use in increasing the potency of a substrate for multidrug resistance related protein” (Dublin City University and Enterprise Ireland, priority 1996, dated 2002).
Entries after “also recorded” stand apart in the source; their conditions may differ.

Experiments:
DLKP cells = experiment: Example 5 miniaturised in vitro cell toxicity assay, DLKP; format: cell-based, human
Method: For the monolayer cell lines miniaturised in vitro assays were used to determine drug toxicity. On Day I cells were seeded at 1×10^3 cells/well in a 96-well plate and left to attach overnight. Drug was added on Day 2, and the assay was terminated on Day 7. Cell number was then evaluated by using one of two colorimetric end-point […]: the acid phosphatase assay (Martin, A., and Clynes, M. (1991); In vitro Cell and Development Biology, 27A: 183-184) or the crystal violet dye elution assay (Martin, A., and Clynes, M. (1993); Cytotechnology, 11:49-58). All assays were performed in triplicate.

[1] = tested on: GST prepared from DLKP cells; experiment: total GST assay with 1-chloro-2,4-dinitrobenzene; format: biochemical, human
Method: The other NSAIDs were tested in a total GST assay (Habig, W. H., and Jakoby, W. B., (1981); Methods Enzymol., 77: 218-231). Total cellular GST activity was assayed, using 1-chloro-2,4-dinitrobenzene as a substrate, according to the method of Habig, W. H., and Jakoby, W. B., (1981); supra. Due to spectrophotometric interference at 340 nm, caused by the majority of the NSAIDs, the assays were all performed at 360 nm, without any apparent effect on the rate of the control reaction The results are shown in Table 5.

[2] = tested on: COR L23 P (non-MRP) cells; conditions: doxorubicin 10 mg/ml alone or with sulindac 20 mg/ml, 1, 2, 4 h, FIG. 4
Method: 10^6 COR L23 P (parental non-MRP resistant, MRP−) or COR L23 R (MRP resistant, MRP+) cells were added to 75 cm^3 vented flasks containing HEPES buffered Rosemount Park Memorial Institute (RPMI) medium and maintained at 37° C. in a 5% CO2 atmosphere. […] After three days of growth, doxorubicin (final concentration 10 mg/ml), sulindac (final concentration 20 mg/ml) or doxorubicin and sulindac were added to individual flasks. Samples were taken after 1, 2 and 4 h. and assayed for drug content.
The contents of each flask were washed twice with 5 ml of PBS and stored at −70° C. The flasks were thawed and 100 μl of water and 100 μl of 33% silver nitrate added to each and mixed for 5 min. […]
The extract was resuspended in 50 μl of methanol in the sample vial and loaded into the HPLC autosampler. […] The mobile phases were pumped through a C18 reversed-phase Ultrasphere XL (Beckman) HPLC column (4.6×70 mm) with absorbance measured at 253 nm. […] The amount of doxorubicin and sulindac present was quantified by measuring the peak height of these drugs and the internal standard. […] The concentration of doxorubicin in the samples was calculated from the) nd development standard line using the peak height ratio. The sulindac concentrations were calculated by the same method.

A549 cell line = experiment: miniaturised in vitro colorimetric cell survival assay (acid phosphatase end-point), A549; format: cell-based, human; conditions: alone or + Adriamycin 40 ng/ml
Method: (§1) All the results presented in this Example for the DLKP, A549 and OAW42-SR cell lines were derived using the same miniaturised in vitro calorimetric assay system. On Day 1 of the assay 1000 cells/well/100 μl were plated into 96-well plates. Cells were allowed to attach overnight and cell viability was visually assessed. […] NSAID plus chemotherapeutic drug) to be analysed were added onto the cells. The individual drugs were added separately in 50 μl quantities (4× stocks, to take into account the dilution effect of having 200 μl final volume in each well). The drugs were left on the cells for five further days (Day 7) and cell number was determined using the acid phosphatase end-point assay which uses p-nitrophenol phosphate as substrate (Martin, A. and Clynes, M. (1991) In Vitro Dev. Biol., 27A, 183-184). On Day 7 the culture medium was removed from the cells and they were washed once with phosphate buffered saline (PBS). […] After the incubation period 50 μl of 1N NaOH was added to each well to develop the colour. The plates were then read at 405 nm (reference 620 nm) on an ELISA plate-reader. […] All results are the cell survival means ±S.D. from a minimum of three experiments.

HL-60ADR cells = experiment: etoposide-induced apoptosis (nuclear fragmentation), HL-60ADR; format: cell-based; conditions: HL-60ADR (resistant); etoposide alone or co-treated with sulindac; FIG. 1
Method: (§2) An experiment was carried out to determine the effect of the NSAID sulindac on etoposide-induced apoptosis in two cell lines, namely HL-60S and HL-60ADR. These cell lines were donated by Dr. Melvin Center, Kansas State University, Manhattan Kans. 66506, U.S.A. For the HL-60S and ADR cell lines the percentage of apoptotic cells within the cell population, following drug exposure, was used to quantify toxicity. Cells were plated in fresh medium at a concentration of 10^6 cells/ml in a 24-well plate (Greiner) and drugs were then added to the wells. A 200 μl sample from each well was taken after 4 and 8 hrs. Samples were cytospun for 2 min at 500 rpm using a Shandon Cytofuge3. After air-drying the cytospins were stained using a Romanowsky staining kit, Rappi-Diff II (Langanbach), dried and mounted in DPX (BDH). Slides were studied on an Optiphot microscope (Nikon) fitted with a 40× objective, and visualised on a monitor via a Mitsubishi CCD-100E colour CCD-camera and a 0.6× relay lens. Nuclear fragmentation was used as a morphological marker for apoptosis and a minimum of 200 cells were assessed in at least three different microscopic fields. Results were expressed as the percentage of apoptotic cells within the population. Each experiment was repeated in duplicate.

MRP pump = target: T1, MRP pump (Homo sapiens, UniProt P33527); experiment: ATP-dependent transport of [3H]LTC4 into inside-out plasma membrane vesicles from HL60ADR cells; format: biochemical; conditions: for MRP-pump inhibitory activity: conclusion from Table 4
T1 construct: inside-out plasma membrane vesicles prepared from HL60ADR cells; endogenous in cells; host or cells: HL60ADR cells (plasma membrane vesicles)
T1 sequence (P33527 whole entry): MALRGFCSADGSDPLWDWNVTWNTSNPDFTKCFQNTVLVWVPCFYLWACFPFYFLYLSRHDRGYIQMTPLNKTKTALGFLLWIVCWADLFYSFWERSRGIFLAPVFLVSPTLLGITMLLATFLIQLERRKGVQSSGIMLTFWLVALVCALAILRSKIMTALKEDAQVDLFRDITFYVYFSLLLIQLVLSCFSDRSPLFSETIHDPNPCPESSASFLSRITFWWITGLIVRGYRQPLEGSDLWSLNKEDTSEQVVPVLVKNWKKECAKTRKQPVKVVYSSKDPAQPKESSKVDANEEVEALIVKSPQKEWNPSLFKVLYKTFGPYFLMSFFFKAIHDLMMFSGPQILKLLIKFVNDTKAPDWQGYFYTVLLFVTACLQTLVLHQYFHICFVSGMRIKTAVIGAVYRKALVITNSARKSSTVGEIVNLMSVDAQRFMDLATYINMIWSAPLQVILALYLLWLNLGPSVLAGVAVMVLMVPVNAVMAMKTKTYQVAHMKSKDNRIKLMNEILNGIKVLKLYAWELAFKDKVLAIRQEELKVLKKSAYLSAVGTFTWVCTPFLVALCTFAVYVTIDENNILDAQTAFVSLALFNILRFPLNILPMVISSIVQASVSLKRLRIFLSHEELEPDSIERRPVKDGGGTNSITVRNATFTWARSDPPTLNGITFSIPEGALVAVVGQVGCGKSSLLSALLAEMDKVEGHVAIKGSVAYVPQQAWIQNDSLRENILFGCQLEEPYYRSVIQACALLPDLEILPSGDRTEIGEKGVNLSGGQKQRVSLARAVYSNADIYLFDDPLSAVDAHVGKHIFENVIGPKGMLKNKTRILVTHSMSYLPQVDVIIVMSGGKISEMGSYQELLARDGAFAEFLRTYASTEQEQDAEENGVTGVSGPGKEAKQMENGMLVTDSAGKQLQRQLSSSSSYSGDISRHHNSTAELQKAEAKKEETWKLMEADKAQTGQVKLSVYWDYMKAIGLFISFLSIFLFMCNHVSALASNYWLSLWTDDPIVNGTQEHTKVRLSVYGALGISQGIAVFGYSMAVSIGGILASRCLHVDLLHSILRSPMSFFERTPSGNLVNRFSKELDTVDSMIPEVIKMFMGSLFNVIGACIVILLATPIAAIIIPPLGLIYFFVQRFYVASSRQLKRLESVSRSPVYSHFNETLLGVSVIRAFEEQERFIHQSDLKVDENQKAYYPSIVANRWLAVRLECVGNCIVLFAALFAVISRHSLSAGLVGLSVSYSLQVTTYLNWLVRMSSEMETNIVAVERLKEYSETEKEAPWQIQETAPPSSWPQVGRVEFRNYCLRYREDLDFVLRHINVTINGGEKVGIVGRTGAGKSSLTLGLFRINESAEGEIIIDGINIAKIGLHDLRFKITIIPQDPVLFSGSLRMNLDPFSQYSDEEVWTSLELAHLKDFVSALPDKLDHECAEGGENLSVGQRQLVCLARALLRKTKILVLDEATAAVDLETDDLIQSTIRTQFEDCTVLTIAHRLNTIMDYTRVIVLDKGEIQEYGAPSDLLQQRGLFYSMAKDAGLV
Method: To determine if the NSAIDs were acting directly on the MRP pump the uptake of [^3H]LTC4 into inside-out plasma membrane vesicles prepared from HL60ADR cells was examined using a rapid filtration procedure (Ishikawa,T., et al. (1994); J. Biol. Chem. 269 (46); 29085-29093). ATP-dependent transport of [^3H]LTC4 into the membrane vesicles was measured by a rapid filtration method using a Millipore sampling manifold. The membrane vesicles were thawed at 37° C. before use and kept on ice. The reaction components consisted of 0.25 M sucrose/10 mM Tris.HCl pH 7.4/1 mM ATP/10 mM MgCl2/10 mM creatine phosphate/ 110 μg/ml creatine kinase and 10 nM [^3H]LTC4, with 50 μg of the inside-out vesicle preparation, in a final volume of 110 μl. This suspension was incubated at 37° C., with gentle mixing, and aliquots, 20 μl, were taken at the indicated points. Those aliquots were diluted in 1 ml of ice-cold incubation buffer before being applied to 0.22 μm Millipore GSWP nitrocellulose filters, pre-soaked in ice-cold incubation buffer, under suction. The filters were subsequently washed with 3 ml ice-cold incubation buffer, and absorbed radioactivity was measured using a scintillation counter (Beckman). In control experiments ATP was replaced with 5μ-AMP to determine the ATP-dependent transport.

DLKP cell line = experiment: miniaturised in vitro colorimetric cell survival assay (acid phosphatase end-point), DLKP; format: cell-based, human
Method: as §1

HL-60S cells = experiment: etoposide-induced apoptosis (nuclear fragmentation), HL-60S; format: cell-based; conditions: HL-60S (sensitive); etoposide with sulindac; FIG. 2
Method: as §2

MRP-specific substrates = experiment: screen for enhancement of toxicity of MRP substrates by NSAIDs; format: cell-based; conditions: summary statements
[3] = read-out: % inhibition of transport of [3H]LTC4

Which “% cell survival” value (DLKP cells; Sulindac 1.5 μg/ml, alone or + Epirubicin 1 ng/ml) does the source give for `CC1=C(CC(=O)O)c2cc(F)ccc2/C1=C\c1ccc([S+](C)[O-])cc1` (stereo not shown) [Sulindac, sulindac] here?
Its value is 99.92 ± 3.3%.

And the “% cell survival” value (DLKP cells; Sulindac 3.0 μg/ml, alone or + Epirubicin 1 ng/ml)?
The value was 100.29 ± 3.2%.

What about the “% cell survival” value (DLKP cells; Sulindac 6.0 μg/ml, alone or + Epirubicin 1 ng/ml) of the same compound?
Its value is 100.07 ± 3.6%.

What about the “% Inhibition of GST” value ([1]; 0.25 mM) of the same compound?
Its value is 42.6%.

What about the “doxorubicin level in the cells” value [2] of the same compound?
Its value is “regardless of the co-treatment with sulindac”.

What about the “% cell survival” value (A549 cell line; xi) Sulindac 1.50 μg/ml) of the same compound?
The value was 100.00 ± 13.20%.

What about the “% cell survival” value (A549 cell line; xi) Sulindac 3.20 μg/ml) of the same compound?
The value was 101.00 ± 12.14%.

And the “% cell survival” value (A549 cell line; xi) Sulindac 6.30 μg/ml)?
The value was 96.01 ± 5.36%.

And the “etoposide-induced apoptosis, percentage of apoptotic cells” value (HL-60ADR cells)?
The value was “a significant increase in the amount of cells dying by apoptosis is observed”.

What about the inhibition at 45 µM (MRP pump; 45 μM) of the same compound?
Its inhibition at 45 µM is 25%.

What about the inhibition at 89 µM (MRP pump; 89 μM) of the same compound?
The inhibition at 89 µM was 69%.

What about the MRP-pump inhibitory activity (MRP pump) of the same compound?
Its MRP-pump inhibitory activity is “have MRP-pump inhibitory activity”.

And the “% cell survival” value (DLKP cell line; ii) Sulindac 1.5 μg/ml, alone or + Vincristine 1.0 ng/ml)?
Its value is 111.6 ± 9.7%.

What about the “% cell survival” value (DLKP cell line; ii) Sulindac 3 μg/ml, alone or + Vincristine 1.0 ng/ml) of the same compound?
Its value is 108.45 ± 10.6%.

And the “% cell survival” value (DLKP cell line; ii) Sulindac 6 μg/ml, alone or + Vincristine 1.0 ng/ml)?
Its value is 114.1 ± 3.9%.

And the “% cell survival” value (DLKP cell line; iii) Sulindac 1.5 μg/ml, alone or + VP-16 100 ng/ml)?
The value was 95.07 ± 1.6%.

What about the “% cell survival” value (DLKP cell line; iii) Sulindac 3 μg/ml, alone or + VP-16 100 ng/ml) of the same compound?
The value was 93.68 ± 2.0%.

And the “% cell survival” value (DLKP cell line; iii) Sulindac 6 μg/ml, alone or + VP-16 100 ng/ml)?
The value was 90.75 ± 3.3%.

What about the “% cell survival” value (DLKP cell line; iv) Sulindac 1.5 μg/ml, alone or + 5-FU 0.5 μg/ml) of the same compound?
The value was 99.70 ± 7.7%.

What about the “% cell survival” value (DLKP cell line; iv) Sulindac 3 μg/ml, alone or + 5-FU 0.5 μg/ml) of the same compound?
The value was 98.79 ± 8.8%.

And the “% cell survival” value (DLKP cell line; iv) Sulindac 6 μg/ml, alone or + 5-FU 0.5 μg/ml)?
Its value is 93.61 ± 5.9%.

What about the “% cell survival” value (DLKP cell line; vii) Sulindac 1.5 μg/ml, alone or + PAT 1.5 μg/ml) of the same compound?
Its value is 96.51 ± 5.3%.

What about the “% cell survival” value (DLKP cell line; vii) Sulindac 3.0 μg/ml, alone or + PAT 1.5 μg/ml) of the same compound?
The value was 99.99 ± 2.9%.

What about the “% cell survival” value (DLKP cell line; vii) Sulindac 6.0 μg/ml, alone or + PAT 1.5 μg/ml) of the same compound?
Its value is 94.23 ± 1.2%.

What about the “etoposide-induced apoptosis, percentage of apoptotic cells” value (HL-60S cells) of the same compound?
The value was “the increased apoptosis is only due to an additive effect of both etoposide and sulindac”.

And the “enhancement of toxicity of MRP substrates” value (MRP-specific substrates)?
Its value is “have been found to enhance the toxicity of MRP-specific substrates”.

How did the “% cell survival” value (DLKP cells; Indomethacin 0.6 μg/ml, alone or + Teniposide 6.25 ng/ml) turn out when `COc1ccc2c(c1)c(CC(=O)O)c(C)n2C(=O)c1ccc(Cl)cc1` [Indomethacin, indomethacin] was run?
The value was 102.06 ± 5.11%.

What about the “% cell survival” value (DLKP cells; Indomethacin 1.25 μg/ml, alone or + Teniposide 6.25 ng/ml) of the same compound?
Its value is 101.28 ± 5.12%.

And the “% cell survival” value (DLKP cells; Indomethacin 2.5 μg/ml, alone or + Teniposide 6.25 ng/ml)?
The value was 96.18 ± 3.43%.

And the “% Inhibition of GST” value ([1]; 0.4 mM)?
The value was 54%.

What about the “% cell survival” value (A549 cell line; ix) Indomethacin 0.60 μg/ml) of the same compound?
The value was 92.38 ± 13.30%.

And the “% cell survival” value (A549 cell line; ix) Indomethacin 1.20 μg/ml)?
The value was 87.54 ± 13.07%.

And the “% cell survival” value (A549 cell line; ix) Indomethacin 2.40 μg/ml)?
The value was 92.18 ± 7.09%.

And the MRP-pump inhibitory activity (MRP pump)?
The MRP-pump inhibitory activity was “have MRP-pump inhibitory activity”.

And the inhibition at 49 µM (MRP pump; [3])?
The inhibition at 49 µM was 20%.

And the inhibition at 98 µM (MRP pump; [3])?
Its inhibition at 98 µM is 70%.

And the “enhancement of toxicity of MRP substrates” value (MRP-specific substrates)?
Its value is “positive; also recorded: have been found to enhance the toxicity of MRP-specific substrates”.
